Measurements from patent publication US20250257034A1, “INDOLE DERIVATIVES AS SEROTONERGIC AGENTS USEFUL FOR THE TREATMENT OF DISORDERS RELATED THERETO” (priority 2023, published 2025).

Tests used:
Format in all cases: in vitro ADME
[1] = Human liver microsomes stability; settings: human liver microsomes; for half-life at 2 μM / microsomal CLint at 2 μM: 2 μM compound, 0.5 mg/mL; for microsomal CLint at 2 μM: read-out: CLint (μL/min/mg protein); for CLint scaled at 2 μM: read-out: Scaled-up CLint
Method: (§1) The objective of this study was to estimate in vitro metabolic stability of exemplary compounds of Formula (I) or a pharmaceutically acceptable salt, solvate, and/or prodrug thereof in pooled human, male rat, and male mouse liver microsomes. The concentrations of compounds in reaction systems were evaluated by LC-MS/MS for estimating the stability in pooled human, male rat, and male mouse liver microsomes. The in vitro intrinsic clearances of test compounds were determined as well.
(§2) A master solution in the “Incubation Plate” containing phosphate buffer, ultra-pure H2O, MgCl2 solution and liver microsomes was made according to Table 33. The mixture was pre-warmed at 37° C. water bath for 5 minutes.
(§3) 40 μL of 10 mM nicotinamide adenine dinucleotide phosphate (NADPH) solution was added to each well. The final concentration of NADPH was 1 mM. The negative control samples were prepared by replacing NADPH with 40 μL of ultra-pure H2O. Samples were prepared in duplicate. Negative controls were prepared in singlet.
(§4) The reaction was started with the addition of 4 μL of 200 μM exemplary test compounds of the disclosure or control compounds to each master solution to get the final concentration of 2 μM. This study was performed in duplicate.
(§5) Aliquots of 50 μL were taken from the reaction solution at 0, 15, 30, 45, and 60 minutes. The reaction solutions were stopped by the addition of 4 volumes of cold methanol with IS (100 nM alprazolam, 200 nM imipramine, 200 nM labet alol and 2 μM ketoprofen). Samples were centrifuged at 3,220 g for 40 minutes. Aliquot of 90 μL of the supernatant was mixed with 90 μL of ultra-pure H2O and then was used for LC-MS/MS analysis.
(§6) LC/MS analysis was performed for all samples from this study using a Shimadzu liquid chromatograph separation system equipped with degasser DGU-20A5R; solvent delivery unit LC-30AD; system controller SIL-30AC; column oven CTO-30A; CTC Analytics HTC PAL System. Mass spectrometric analysis was performed using a Triple Quad™ 5500 instrument.
(§7) All calculations were carried out using Microsoft Excel. Peak area ratios of test compound to internal standard (listed in the below table) were determined from extracted ion chromatograms.
(§8) All calculations were carried out using Microsoft Excel. Peak areas were determined from extracted ion chromatograms. The slope value, k, was determined by linear regression of the natural logarithm of the remaining percentage of the parent drug vs. incubation time curve.
(§9) The in vitro half-life (in vitro t1/2) was determined from the slope value:
(§10) Conversion of the in vitro t1/2(min) into the in vitro intrinsic clearance (in vitro CLint, in μL/min/mg proteins) was done using the following equation (mean of duplicate determinations): […]
(§11) A master solution in the “Incubation Plate” containing phosphate buffer, ultra-pure H2O, MgCl2 solution and liver microsomes was made according to Table 63. The mixture was pre-warmed at 37° C. water bath for 5 minutes.
(§12) 40 μL of 10 mM NADPH solution was added to each well. The final concentration of NADPH was 1 mM. The negative control samples were prepared by replacing NADPH with 40 μL of ultra-pure H2O. Samples were prepared in duplicate. Negative controls were prepared in singlet.
(§13) Conversion of the in vitro t1/2(min) into the in vitro intrinsic clearance (in vitro C Lt, in μL/min/mg proteins) was done using the following equation (mean of duplicate determinations): […]

[2] = Rat liver microsomes stability; settings: rat liver microsomes; for half-life at 2 μM / CLint scaled at 2 μM / microsomal CLint at 2 μM: male, pooled liver microsomes; for half-life at 2 μM / microsomal CLint at 2 μM: 2 μM compound, 0.5 mg/mL; for CLint scaled at 2 μM: read-out: Scaled-up CLint; for microsomal CLint at 2 μM: rat, read-out: CLint (μL/min/mg protein)
Method: as §1, §2, §3, §4, §5, §6, §7, §8, §9, §10, §11, §12, §13

[3] = Mouse liver microsomes stability; settings: mouse liver microsomes; for microsomal CLint at 2 μM / half-life at 2 μM / CLint scaled at 2 μM: male, pooled liver microsomes; for microsomal CLint at 2 μM: mouse, read-out: CLint (μL/min/mg protein); for microsomal CLint at 2 μM / half-life at 2 μM: 2 μM compound, 0.5 mg/mL; for CLint scaled at 2 μM: read-out: Scaled-up CLint
Method: as §1, §2, §3, §4, §5, §6, §7, §8, §9, §10, §11, §12, §13

Structure (SMILES)	Predicted hepatic CL [1]	half-life at 2 μM [1]	microsomal CLint at 2 μM [1]	Remaining Percentage (%) ([1]; With Cofactors, 0 min)	Remaining Percentage (%) ([1]; With Cofactors, 30 min)	Remaining Percentage (%) ([1]; With Cofactors, 60 min)	Remaining Percentage (%) ([1]; Without Cofactors, 0 min)	Remaining Percentage (%) ([1]; Without Cofactors, 30 min)	Remaining Percentage (%) ([1]; Without Cofactors, 60 min)	CLint scaled at 2 μM [1]	half-life at 2 μM [2]	CLint scaled at 2 μM [2]	microsomal CLint at 2 μM [2]	Predicted hepatic CL [2]	Remaining Percentage (%) ([2]; With Cofactors, 0 min)	Remaining Percentage (%) ([2]; With Cofactors, 30 min)	Remaining Percentage (%) ([2]; With Cofactors, 60 min)	Remaining Percentage (%) ([2]; Without Cofactors, 0 min)	Remaining Percentage (%) ([2]; Without Cofactors, 30 min)	Remaining Percentage (%) ([2]; Without Cofactors, 60 min)	also measured
COc1ccc2[nH]cc(CCN3CC[C@@H](OC)C3)c2c1 [(R) I-66, (R)-5-methoxy-3-(2-(3-methoxypyrrolidin-1-yl)ethyl)-1H-indole]	4.37 mL/min/kg	314 min	4.42 µL/min/mg	100.00%	98.13%	87.59%	100.00%	100.00%	98.15%	5.54 mL/min/kg	17.8 min	139 mL/min/kg	77.7 µL/min/mg	39.53 mL/min/kg	100.00%	22.22%	9.71%	100.00%	102.61%	100.00%	microsomal CLint at 2 μM [3]: 14.1 µL/min/mg; half-life at 2 μM [3]: 98.5 min; CLint scaled at 2 μM [3]: 61.5 mL/min/kg; Predicted hepatic CL [3]: 36.55 mL/min/kg; Remaining Percentage (%) ([3]; With Cofactors, 0 min): 100.00%; Remaining Percentage (%) ([3]; With Cofactors, 30 min): 72.95%; Remaining Percentage (%) ([3]; With Cofactors, 60 min): 65.58%; Remaining Percentage (%) ([3]; Without Cofactors, 0 min): 100.00%; Remaining Percentage (%) ([3]; Without Cofactors, 30 min): 104.20%; Remaining Percentage (%) ([3]; Without Cofactors, 60 min): 100.00%
COc1ccc2[nH]cc(CCN3CC[C@@H](OC(F)F)C3)c2c1 [(R) I-67, (R)-3-(2-(3-(Difluoromethoxy)pyrrolidin-1-yl)ethyl)-5-methoxy-1H-indole]	15.34 mL/min/kg	29.3 min	47.3 µL/min/mg	100.00%	47.22%	24.23%	100.00%	79.21%	71.91%	59.3 mL/min/kg	10.5 min	236 mL/min/kg	132 µL/min/mg	44.73 mL/min/kg	100.00%	15.35%	1.93%	100.00%	91.21%	80.30%	microsomal CLint at 2 μM [3]: 57.4 µL/min/mg; half-life at 2 μM [3]: 24.1 min; CLint scaled at 2 μM [3]: 251 mL/min/kg; Predicted hepatic CL [3]: 66.25 mL/min/kg; Remaining Percentage (%) ([3]; With Cofactors, 0 min): 100.00%; Remaining Percentage (%) ([3]; With Cofactors, 30 min): 43.11%; Remaining Percentage (%) ([3]; With Cofactors, 60 min): 17.88%; Remaining Percentage (%) ([3]; Without Cofactors, 0 min): 100.00%; Remaining Percentage (%) ([3]; Without Cofactors, 30 min): 103.14%; Remaining Percentage (%) ([3]; Without Cofactors, 60 min): 109.43%
CN(CCOC(F)F)CCc1c[nH]c2ccccc12 [Compound I-130, N-(2-(1H-Indol-3-yl)ethyl)-2-(difluoromethoxy)-N-methylethan-1-amine]	18.58 mL/min/kg	9.6 min	144 µL/min/mg	100.00%	11.46%	0.75%	100.00%	99.47%	94.15%	181 mL/min/kg	< 4.51 min	> 550 mL/min/kg	> 307 µL/min/mg	>50.17 mL/min/kg	100.00%	0.00%	0.00%	100.00%	105.21%	103.65%	microsomal CLint at 2 μM [3]: 173 µL/min/mg; half-life at 2 μM [3]: 8.03 min; CLint scaled at 2 μM [3]: 755 mL/min/kg; Predicted hepatic CL [3]: 80.41 mL/min/kg; Remaining Percentage (%) ([3]; With Cofactors, 0 min): 100.00%; Remaining Percentage (%) ([3]; With Cofactors, 30 min): 7.52%; Remaining Percentage (%) ([3]; With Cofactors, 60 min): 0.87%; Remaining Percentage (%) ([3]; Without Cofactors, 0 min): 100.00%; Remaining Percentage (%) ([3]; Without Cofactors, 30 min): 95.65%; Remaining Percentage (%) ([3]; Without Cofactors, 60 min): 104.89%
